Tests used:
[1] = biological target: T1, purified recombinant MGMT (rMGMT) (Homo sapiens, UniProt P16455); experiment: MGMT DNA repair activity ([3H]-methyl transfer), purified recombinant MGMT treated with DSF; assay type: biochemical
T1 construct: hexa-histidine; made in house; host or cells: E. coli
Experimental: (§1) The DNA repair activity of MGMT was measured by the transfer of [3H]-labeled methyl groups from the O^6-position of guanine in the DNA substrate to the MGMT protein as described previously. The DNA substrate enriched in O6-methylguanine was prepared by reacting [3H]-methylnitrosourea (GE Healthcare, 60 Ci/mmol). Briefly, the cell pellets were washed with cold PBS, disrupted by sonication in the assay buffer (30 mM Tris-HCl pH 7.5, 0.5 mM DTT, 0.5 mM EDTA, 5% glycerol, and 20 μM spermidine) and centrifuged. The extracts (50-150 μg protein) were supplemented with the [3H]-DNA (10,000 cpm) and incubated at 37° C. The reactions were terminated by the addition of TCA, the DNA substrate was hydrolyzed at 80° C., and following filtration on glass fiber discs; the radioactivity present in protein precipitates was quantitated.
(§2) Cells were trypsinized, washed and MGMT activity was determined in cell extracts (top panel). The same extracts were western blotted for MGMT protein. WB, western blot. […] Cells were exposed to CuDSF and analyzed for MGMT activity and protein as above. […] To delineate the appropriate time for alkylating drug treatments following MGMT inhibition, next, the time course of MGMT depletion by these three interventions was studied.

[2] = biological target: T2, Cys145 of MGMT (Homo sapiens, UniProt P16455); experiment: BG-PEG-biotin probe binding to MGMT
T2 construct: hexa-histidine; made in house; host or cells: E. coli
T2 sequence (P16455 1-207): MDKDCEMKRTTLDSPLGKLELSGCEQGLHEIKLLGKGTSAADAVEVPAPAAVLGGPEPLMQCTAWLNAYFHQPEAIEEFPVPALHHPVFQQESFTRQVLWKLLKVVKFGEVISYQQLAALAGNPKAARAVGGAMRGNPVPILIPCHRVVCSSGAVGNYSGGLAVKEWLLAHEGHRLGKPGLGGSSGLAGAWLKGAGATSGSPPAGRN
Experimental: Drug treatments and exposure times are shown in labels. […] Cells were trypsinized at times shown. Levels of MGMT activity and protein were determined in cell extracts. […] BG-PEG-biotin (5 μM) was then added and incubations continued for 15 minutes. The samples were electrophoresed, blotted and probed with Streptavidin-HRP to detect the protein-bound biotin (upper panel). […] Streptavidin-HRP was used to probe the resulting blot (upper panel).
MGMT protein and activity levels were analyzed during the depletion and repletion (FIG. 3B). […] MGMT protein levels as determined by western analyses during the depletion/repletion cycle were consistent with and fully reflected the DNA repair activity profiles (FIG. 3B, left panel).

[3] = biological target: T3, rMGMT (Homo sapiens, UniProt P16455); experiment: In vitro degradation of DSF treated rMGMT in rabbit reticulocyte lysates; assay type: biochemical
T3 construct: hexa-histidine; made in house; host or cells: E. coli
T3 sequence (P16455 1-207): T2 sequence (P16455 1-207)
Text: DSF-exposed MGMT samples were dialyzed to remove the residual drug prior to the degradation assays. […] The protein bands were quantified by densitometry.
The samples were immunoblotted and probed with MGMT antibodies (right panel). The densitometric quantitation of protein bands on the western blots is shown as a line graph on the left. […] Cell lysates were western blotted for the MGMT protein. […] Kinetics of DNA interstrand crosslinks formed in UW228 cells after treatment with […] BCNU or […] melphalan is shown. […] They were then exposed to BCNU or melphalan. At times specified, the cells were harvested, DNA isolated and the extent of interstrand crosslinking of DNA was determined using the ethidium bromide fluorescence assay. Values are mean+S.D. The results were significant at P<0.05. […] The cells were trypsinized at times indicated and analyzed by flow cytometry.
Since the MGMT inactivated by BG is degraded through ub-proteolysis, it was of interest to investigate the mode of elimination of DSF-modified MGMT protein. Therefore, first, we compared the in vitro degradation of DSF-treated and untreated rMGMT protein in rabbit reticulocyte lysates (RL), which are known to promote the proteasomal degradation. The control and DSF-modified MGMT proteins were incubated with RL in the presence of Mg++, ATP and ubiquitin at 37° C. The reaction mixtures were blotted and probed with MGMT antibodies. […] To show the involvement of the ub-proteolysis in cells a clinically used proteasome inhibitor. […] Taken together, the results presented in FIGS. 4A-4B confirm that DSF-modified MGMT is perceived as a structurally altered/damaged protein in cells and eliminated through the ub-proteasomal route.

[4] = system: UW228 cells; experiment: Soft agar colony formation assay; assay type: cell-based, human; conditions: 50 μM DSF then BCNU or TMZ
Experimental: (§3) These were performed using the yellow tetrazolium dye (3-(4, 5-dimethylthiazolyl-2)-2, 5-diphenyl tetrazolium bromide) (MTT) as described previously. […] The purple color developed due to formazan was measured at 570 nm using a […]luor Plus plate reader (Tecan Inc.). Cell proliferation was also assessed by colony formation assays on soft agar.
(§4) Cells were then cultured for 48 hours before performing the MTT assays. […] The effect of drugs on cell survival was computed at each concentration. The data represents the results of three independent experiments performed in triplicate.

[5] = biological target: T4, MGMT (Mus musculus, UniProt P26187); experiment: MGMT activity in mouse brain and liver after DSF administration; assay type: in vivo, mice; conditions: single dose 150 mg/kg i.p., 9-12 hours
T4 construct: from tissue; host or cells: mouse brain and liver
T4 sequence (P26187 whole entry): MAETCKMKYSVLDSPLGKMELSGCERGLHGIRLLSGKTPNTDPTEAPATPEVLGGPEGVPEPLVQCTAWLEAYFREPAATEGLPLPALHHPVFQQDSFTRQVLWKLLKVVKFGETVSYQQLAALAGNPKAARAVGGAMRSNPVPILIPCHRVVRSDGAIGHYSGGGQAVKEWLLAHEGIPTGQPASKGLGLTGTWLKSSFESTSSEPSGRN
Text: Control mice received DMSO alone.
Error bars indicate SD. […] The overall findings of the present study are summarized.

[6] = system: U87 malignant glioma cells; experiment: MTT cell survival assay, MGMT-deficient cells; assay type: cell-based, human; conditions: DSF-pretreated U87 cells lacking MGMT expression
Experimental: as §3
Cells were then cultured for 48 hours before performing the MTT assays. […] The effect of drugs on cell survival was computed at each concentration. The data represents the results of three independent experiments performed in triplicate. Values are mean+S.D. The results presented in panels B, C and G (at 25-75 μM BCNU and 250-750 temozolomide) were significant at P<0.05. *, indicates statistically significant difference as compared to controls.

[7] = biological target: T5, cellular MGMT (UW228 cell-free extracts) (Homo sapiens, UniProt P16455); experiment: MGMT DNA repair activity in UW228 cell-free extracts treated with DSF; assay type: biochemical; conditions: 25 μM DSF, 20 minutes
T5 construct: endogenous in cells; host or cells: UW228, T98G
Experimental: as §1, §2

[8] = system: UW228 cells; experiment: MTT cell survival assay; assay type: cell-based, human
Experimental: as §3, §4

[9] = biological target: T6, MGMT (Homo sapiens, UniProt P16455); experiment: MGMT activity and protein in MGMT-proficient human cancer cell lines (HT29, T47D, HCT116); assay type: cell-based; set-up: endogenous in cells; host or cells: HT29, T47D, HCT116
T6 sequence (P16455 1-207): T2 sequence (P16455 1-207)

[10] = system: wild-type and mutant p53, NF-κB, and ubiquitin E1; experiment: Degradation of redox-sensitive proteins by disulfiram; assay type: cell-based

CCN(CC)C(=S)SSC(=S)N(CC)CC [DSF, 1,1′,1″,1′″-[disulfanediylbis(carbonothioylnitrilo)]tetraethane]
inhibition at 25 µM [1]: 40%
binding of BG-PEG-biotin probe to purified rMGMT after drug ([2]; 50 μM DSF, 20 minutes at 37° C., wild type rMGMT): significant reduction in binding of the probe
BG-PEG-biotin labeling of MGMT in cell extracts after drug ([2]; UW228 cell extracts, 20 minutes): eliminated the western blot signal
disappearance of DSF-modified rMGMT protein ([3]; 10 minutes of incubation): 30%
disappearance of DSF-modified rMGMT protein ([3]; 25 minutes of incubation): 45%
disappearance of DSF-modified rMGMT protein ([3]; 40 minutes of incubation): 70%
enhanced cytotoxicity of BCNU or TMZ, colony formation [4]: 3 fold
decrease of MGMT repair activity in brain [5]: 40%
effect on cell killing by TMZ or BCNU [6]: did not increase the extent of cell killing by TMZ or BCNU
repair activity in the extracts curtailed [7]: 75%
effect on melphalan-induced cell killing ([8]; 50 μM DSF preincubation 12 hours): did not increase the melphalan-induced cell killing
potentiation of BCNU cytotoxicity ([8]; 50 μM DSF preincubation 12 hours, BCNU 4 days): 3 fold
increased cytotoxicity of TMZ+DSF compared to TMZ alone ([8]; 50 μM DSF preincubation 12 hours, TMZ 4 days): 4 to 5 fold
cell killing by DSF alone ([8]; 50 μM DSF, 24 hours, then cultured 48 hours): less than 5%
degradation of MGMT ([9]; 200 μM, 12 hours): about 70%
inhibition at 400 µM ([9]; HT29 and HCT116 cells, 400 μM, 20 hour): 95%
degradation of redox-sensitive proteins [10]: degraded by disulfiram in a dose-dependent manner
